pIC50: −log10 of the molar value. Calls of active or inactive are those of the source. The rule behind the calls is not given here.

Experiment [1] is described as follows: Anticancer activity against human 502713 cells assessed as cell viability after 48 hrs by SRB assay. It counts as functional, cell-based. The settings on record: Homo sapiens, 502713, 48 h. In general terms: Sulforhodamine B stains cellular protein and so reports cell mass.
For another experiment, the system named is HCT-15. Description: Anticancer activity against human HCT15 cells assessed as cell viability after 48 hrs by SRB assay. Format: functional, cell-based. To be noted: HCT-15, 48 h.
A further experiment concerns HEp-2. Briefly: Anticancer activity against human Hep2 cells assessed as cell viability after 48 hrs by SRB assay. To be noted: HEp-2, 48 h. It counts as functional, cell-based.
Another experiment relates to IMR-32. Description: Anticancer activity against human IMR32 cells assessed as cell viability after 48 hrs by SRB assay. Format: functional, cell-based. To be noted: IMR-32, 48 h.
Another experiment concerns A549. Description: Anticancer activity against human A549 cells assessed as cell viability after 48 hrs by SRB assay. It counts as functional, cell-based. The settings on record: A549, 48 h.
The subject of a further experiment is DU-145. Briefly: Anticancer activity against human DU145 cells assessed as cell viability after 48 hrs by SRB assay. The settings on record: DU-145, 48 h. It counts as functional, cell-based.
A further experiment has as its system PC-3. Briefly: Anticancer activity against human PC3 cells assessed as cell viability after 48 hrs by SRB assay. To be noted: PC-3, 48 h. It counts as functional, cell-based.
A short description of experiment [2]: Inhibition of DNA topoisomerase 2 assessed as inhibition of relaxation of supercoiled pBR322 plasmid DNA at 10 to 500 uM by gel electrophoresis.
The nature of experiment [3]: Inhibition of DNA topoisomerase 2 assessed as inhibition of relaxation of supercoiled pBR322 plasmid DNA at 1 mM by gel electrophoresis.
Experiment [4] has as its system MOLT-4. Briefly: Cell cycle arrest in human MOLT4 cells assessed as accumulation at sub G1 phase at 5 uM after 24 hrs using propidium iodide staining by flow cytometry. Format: functional, cell-based. (In general: A flow cytometer gives signals particle by particle.)
In experiment [5] the test system is MOLT-4. Briefly: Induction of apoptosis in human MOLT4 cells assessed as DNA fragmentation at 0.5 uM after 24 hrs by agarose gel electrophoresis. Format: functional, cell-based.
The subject of experiment [6] is MOLT-4. Description: Induction of apoptosis in human MOLT4 cells assessed as DNA fragmentation at 1 uM after 24 hrs by agarose gel electrophoresis. Format: functional, cell-based.
The subject of experiment [7] is MOLT-4. Description: Induction of apoptosis in human MOLT4 cells assessed as DNA fragmentation at 5 uM after 24 hrs by agarose gel electrophoresis. Format: functional, cell-based.
Experiment [8] has as its system MOLT-4. Description: Induction of apoptosis in human MOLT4 cells assessed as DNA fragmentation at 10 uM after 24 hrs by agarose gel electrophoresis. Format: functional, cell-based.
Experiment [9] deals with MOLT-4. Description: Cell cycle arrest in human MOLT4 cells assessed as accumulation at sub G1 phase at 0.5 uM after 24 hrs using propidium iodide staining by flow cytometry. Format: functional, cell-based.
Experiment [10] relates to MOLT-4. Briefly: Cell cycle arrest in human MOLT4 cells assessed as accumulation at sub G1 phase at 1 uM after 24 hrs using propidium iodide staining by flow cytometry. It counts as functional, cell-based.
Experiment [11] has as its system MOLT-4. Description: Cell cycle arrest in human MOLT4 cells assessed as accumulation at sub G1 phase at 10 uM after 24 hrs using propidium iodide staining by flow cytometry. It counts as functional, cell-based.
Experiment [12] can be described thus: Inhibition of DNA topoisomerase 2 assessed as inhibition of relaxation of supercoiled pBR322 plasmid DNA at 10 uM by gel electrophoresis.

On to `O=c1[nH]cc(F)c(=O)[nH]1` [FLUOROURACIL], for which the pIC50 in [1] is 5.34; with HCT-15, 5.44; in the experiment on HEp-2, 6.52; in the experiment with IMR-32 it was 4.74; in the experiment on A549 it was 5.62; with DU-145, 5.32. In addition, the pIC50 in the experiment with PC-3 is 4.92.

For `COc1cc([C@@H]2c3cc4c(cc3[C@@H](Nc3ccc5ccc6cccc7ccc3c5c67)[C@H]3COC(=O)[C@H]23)OCO4)cc(OC)c1OC`, the inhibition entry in [2] and in experiment [3] was “Active” throughout. Moreover, the pIC50 is 8.70 in experiment [1], 10.00 in the experiment on HCT-15, 9.05 with A549 and 10.00 in the experiment on PC-3.

Consider `COc1cc([C@@H]2c3cc4c(cc3[C@@H](Nc3cccc5c3Cc3ccccc3-5)[C@H]3COC(=O)[C@H]23)OCO4)cc(OC)c1O`, for which the pIC50 in experiment [1] is 9.00; in the experiment with HCT-15, 10.00; in the experiment on HEp-2, 6.00; in the experiment on IMR-32, 5.00; in the experiment on A549 it was 6.00; in the experiment with DU-145 it was 5.57. In addition, the pIC50 in the experiment on PC-3 is 6.30.

As to `COc1cc([C@@H]2c3cc4c(cc3[C@@H](Nc3ccc(C(=O)c5ccc(N(CCCl)CCCl)cc5)cc3)[C@H]3COC(=O)[C@H]23)OCO4)cc(OC)c1OC`, the pIC50 was 7.00 in [1]; 6.05 with HCT-15; 6.05 in the experiment with HEp-2; 5.20 in the experiment on IMR-32; 5.51 with A549; 5.43 in the experiment with DU-145. Besides, in the experiment on PC-3, the negative logarithm of the IC50 (pIC50) is 5.59.

Take `COc1cc([C@@H]2c3cc4c(cc3[C@@H](Nc3ccc(C(=O)c5ccc(F)cc5)cc3)[C@H]3COC(=O)[C@H]23)OCO4)cc(OC)c1OC`: the pIC50 in experiment [1] was 5.39; in the experiment on HCT-15 it was 5.21; in the experiment with HEp-2, 5.15; with IMR-32 it was 4.72; in the experiment on A549, 4.77; in the experiment on PC-3, 5.17.

Take `COc1cc([C@@H]2c3cc4c(cc3[C@@H](Nc3cc5c6ccccc6ccc5c5ccccc35)[C@H]3COC(=O)[C@H]23)OCO4)cc(OC)c1O`: the inhibition result in experiment [2] and in [3] was “Active” throughout. Moreover, the negative-log IC50 (pIC50) in experiment [1] was 7.00; with HCT-15 it was 7.00; in the experiment with HEp-2, 8.00; in the experiment with IMR-32, 9.00; in the experiment on A549 it was 9.52; in the experiment on DU-145 it was 9.52. Besides, the pIC50 in the experiment on PC-3 was 9.52.

Consider `CC[C@@]1(O)C(=O)OCc2c1cc1n(c2=O)Cc2cc3ccccc3nc2-1` [CAMPTOTHECIN], for which the outcome in the experiment on MOLT-4 [4] was Active. Further, the pIC50 is 7.17 in the experiment with HCT-15; 6.15 in the experiment on HEp-2; 7.10 in the experiment with IMR-32; 7.52 in the experiment on A549; 7.70 with DU-145; 7.52 in the experiment on PC-3.

On to `COc1cc([C@@H]2c3cc4c(cc3[C@@H](Nc3cccc5cc6ccccc6cc35)[C@H]3COC(=O)[C@H]23)OCO4)cc(OC)c1O`, for which the pIC50 in the experiment with HCT-15 was 5.09; with HEp-2, 5.07; in the experiment with IMR-32, 5.64; in the experiment with A549, 5.08; in the experiment with DU-145, 4.74.

With `COc1cc([C@@H]2c3cc4c(cc3[C@@H](Nc3cc5c6ccccc6ccc5c5ccccc35)[C@H]3COC(=O)[C@H]23)OCO4)cc(OC)c1OC`, the outcome with MOLT-4 [5], with MOLT-4 [6], in the experiment with MOLT-4 [7], with MOLT-4 [8], with MOLT-4 [9] and with MOLT-4 [10] was Active. In addition, the outcome in the experiment with MOLT-4 [4] and in the experiment on MOLT-4 [11] was Active. Further, the inhibition entry in experiment [2] and in [3] was “Active” throughout. Moreover, the pIC50 in experiment [1] is 7.00; in the experiment on HCT-15 it was 8.70; in the experiment on HEp-2, 8.70; in the experiment on IMR-32 it was 8.52; in the experiment on A549, 7.40; in the experiment on DU-145 it was 5.66. In addition, the pIC50 in the experiment on PC-3 is 7.00.

For `COc1cc([C@@H]2c3cc4c(cc3[C@@H](Nc3ccc5ccc6cccc7ccc3c5c67)[C@H]3COC(=O)[C@H]23)OCO4)cc(OC)c1O`, the negative logarithm of the IC50 (pIC50) is 8.70 in experiment [1]; 10.00 with HCT-15; 9.70 in the experiment with HEp-2; 6.70 in the experiment with IMR-32; 5.77 in the experiment with A549; 5.66 with DU-145.

In the case of `COc1cc([C@@H]2c3cc4c(cc3[C@@H](Nc3cccc5c3Cc3ccccc3-5)[C@H]3COC(=O)[C@H]23)OCO4)cc(OC)c1OC`, the negative-log IC50 (pIC50) in [1] was 5.26; in the experiment on HCT-15 it was 7.05; with HEp-2, 5.52; in the experiment on IMR-32, 5.26; in the experiment on A549 it was 5.15; in the experiment on DU-145, 5.18. The pIC50 in the experiment with PC-3 was 5.37.

For the compound `COc1cc([C@@H]2c3cc4c(cc3[C@@H](O[C@@H]3O[C@@H]5CO[C@@H](C)O[C@H]5[C@H](O)[C@H]3O)[C@H]3COC(=O)[C@H]23)OCO4)cc(OC)c1O` [ETOPOSIDE], the inhibition entry in experiment [12] is “Active”. Also, the pIC50 in experiment [1] was 7.00; in the experiment on HCT-15 it was 6.05; in the experiment with HEp-2 it was 6.05; with IMR-32, 5.20; in the experiment on A549 it was 5.51; with DU-145, 5.43. The pIC50 with PC-3 is 5.59.

As to `COc1cc([C@@H]2c3cc4c(cc3[C@@H](Nc3ccc(C(=O)c5ccc(F)cc5)cc3)[C@H]3COC(=O)[C@H]23)OCO4)cc(OC)c1O`, the pIC50 was 5.85 in experiment [1]; 7.10 with HCT-15; 5.89 in the experiment on HEp-2; 5.89 in the experiment on IMR-32; 6.70 in the experiment with A549; 6.52 in the experiment with DU-145. For the same compound, the pIC50 with PC-3 was 5.22.

`COc1cc([C@@H]2c3cc4c(cc3[C@@H](Nc3cccc5cc6ccccc6cc35)[C@H]3COC(=O)[C@H]23)OCO4)cc(OC)c1OC`: the pIC50 in [1] was 5.03; in the experiment on HCT-15, 5.20; with HEp-2 it was 5.17; in the experiment with IMR-32, 5.17; in the experiment with A549, 5.06; in the experiment on DU-145, 4.68. Moreover, in the experiment on PC-3, the pIC50 is 5.10.

For orientation: pIC50 means the negative decadic logarithm of the IC50, by convention in mol/L.

For the origin of these results see ChEMBL document CHEMBL1287803, “Synthesis of 4β-N-polyaromatic substituted podophyllotoxins: DNA topoisomerase inhibition, anticancer and apoptosis-inducing activities” (Bioorg Med Chem, 2010).
